Key:
rat osteocalcin promoter = assay: OCN (osteocalcin) promoter assay; format: cell-based; settings: RG-15 (ROS 17/2.8) cells, 48 hr treatment, luciferase reporter
Description: 3. The OCN (osteocalcin) Promoter Assay
The OCN Promoter Assay is an indicator and marker for osteoporosis. […] Preferred assay results are less than 50 nM.
(3) Materials and Method for the OCN Promoter Assay:
The activation of osteocalcin by VDR ligands was evaluated in a rat osteoblast-like cell line RG-15 (ROS 17/2.8) stably expressing rat osteocalcin promoter fused with luciferase reporter gene. […] Confluent RG-15 cells maintained in DMEM/F-12 medium (3:1) containing 5% FBS, 300 μg/ml G418 and at 37° C. under 5% CO2/95% air atmosphere were trypsinized (0.25% trypsin) and plated into white opaque 96-well cell culture plates (25000 cells/well). After 24 hr, cells (in DMEM/F-12 medium+2% FBS) were treated with various concentrations of compounds, dissolved in DMSO. The final DMSO concentration remained at 0.01% (v/v). After 48 hr treatment, the medium was removed, cells were lysed with 50 μl of lysis buffer (From Luciferase reporter assay system, Roche Diagnostics, Indianapolis, Ind.) and assayed for luciferase activity using the Luciferase Reporter Gene Assay kit from Boehringer Mannheim as per manufacturer's specifications.

RXR-VDR heterodimer = biological target: T1, RXR-VDR heterodimer (Homo sapiens, UniProt P11473); assay: RXR-VDR heterodimerization assay (SaOS-2 cells); format: cell-based; settings: Gal4-RXR-DEF / VP16-VDR-LBD, luciferase reporter
T1 construct: Add the Gal4-RXR-DEF and VP16-VDR-LBD; expressed in transfected cells; host or cells: SaOS-2 cells
T1 sequence (P11473 127-423 limits assumed): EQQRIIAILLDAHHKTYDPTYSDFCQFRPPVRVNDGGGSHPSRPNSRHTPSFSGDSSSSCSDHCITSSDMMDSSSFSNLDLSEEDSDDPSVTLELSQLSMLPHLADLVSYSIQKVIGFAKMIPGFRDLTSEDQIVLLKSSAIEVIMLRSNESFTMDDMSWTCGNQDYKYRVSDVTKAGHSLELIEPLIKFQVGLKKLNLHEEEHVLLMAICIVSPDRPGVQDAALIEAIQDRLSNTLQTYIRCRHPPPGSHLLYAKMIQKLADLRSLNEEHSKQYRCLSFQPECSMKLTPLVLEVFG
T1 sequence (P19793 201-462 partner limits assumed): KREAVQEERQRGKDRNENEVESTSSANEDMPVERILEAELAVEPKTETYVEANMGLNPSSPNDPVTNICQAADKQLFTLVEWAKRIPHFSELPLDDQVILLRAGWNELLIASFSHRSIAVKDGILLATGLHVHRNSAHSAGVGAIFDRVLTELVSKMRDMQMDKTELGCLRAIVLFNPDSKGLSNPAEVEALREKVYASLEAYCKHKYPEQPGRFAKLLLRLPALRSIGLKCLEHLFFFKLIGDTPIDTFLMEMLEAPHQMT
Excerpt: 1. The RXR-VDR heterodimer Assay:
This assay provides the VDR activity of a test compound.
(1) Materials and Method for RXR-VDR Heterodimerization Assay:
Luciferase Assay Reagent: • Use Steady-Glo Luciferase Reagent from Promega (Cat # E2550) Consists of:
Add plain DMEM media to tubes for mixing the DNA
Add the Reporter gene pFR-LUC
Add the Gal4-RXR-DEF and VP16-VDR-LBD
Make a stock solution of the compounds in DMSO
Further dilute in D-MEM (Low Glucose—With out Phenol Red)
Read the plates after drug treatment
Add Steady-Glo Luciferase Reagent mixture/wells
Count each well using a Luminescence counter, Top Count NXT by Packard

VDR = biological target: T2, VDR (Homo sapiens, UniProt P11473); assay: Caco-2 cell co-transfection assay (VDR CTF); format: cell-based; settings: Caco-2 cells, pGal4-VDR-LBD co-transfection, luciferase reporter
T2 construct: the receptor expression vector pGal4-VDR-LBD (10 ng); expressed in transfected cells; host or cells: Caco-2 cells
T2 sequence (P11473 127-423 limits assumed): T1 sequence (P11473 127-423 limits assumed)
Description: 2. The Caco-2 Cell Co-Transfection Assay:
The Caco-2 cell assay is an indicator for the undesirable condition of hypercalcemia. This co-transfection assay is a surrogate assay for in vivo calcemic activity of VDR ligands. […] Preferred assay results are greater than 1000 nM.
(2) Materials and Method for The Caco-2 Cell Assay:
Caco-2 cells, grown in phenol red free, DMEM (Invitrogen, Carlsbad, Calif.) containing 10% charcoal-stripped FCS (Hyclone, Logan, Utah), were transfected with Fugene 6 reagent (Roche Diagnostics, Indianapolis, Ind.). Cells (5000/well) were plated 18 h before transfection in a 96 well plate. The Cells were transfected with Gal4-responsive reporter pFRLuc (150 ng, Stratagene, La Jolla Calif.) and the receptor expression vector pGal4-VDR-LBD (10 ng), along with Fugene 6 reagent (0.2 μl/well). The DNA-Fugene complex was formed by incubating the mixture for 30 min at room temperature. The cells were transfected in triplicate for 5 h, and treated with various concentrations of VDR ligands (form 0.01 nM to 10,000 nM concentration range) 18 h post-transfection. The luciferase activity was quantified using Steady-Glo reagent kit (Promega, Madison, Wis.) as per manufacturer's specifications.

KERtr cells = assay: Keratinocyte proliferation assay; format: cell-based; settings: Homo sapiens, 72 hr, BrdU incorporation, read-out: Kera. Prolif. IC50
Description: 5. The Keratinocte Proliferation Assay
This Assay is indicative for the treatment of psoriasis.
(5) The Keratinocyte Proliferation Assay:
KERtr cells (Human skin keratinocyte transformed with a retrovirus vector, obtained from ATCC) were plated in 96-well flat-bottomed plates (3000 cells/well) in 100 µl keratinocyte serum free medium supplemented with bovine pituitary extract in the absence of EGF (Life Technologies, Rockville, Md.) and incubated at 37° C. for two days. The cells were treated with various concentrations of VDR ligands (ten-fold serial dilution from 10,000 nM to 0.1 nM in triplicate), dissolved in 100 μl keratinocyte serum free medium supplemented with bovine pituitary extract in the absence of EGF and incubated at 37° C. for 72 hr. BrdU (5-bromo-2′-deoxyuridine) incorporation was analyzed as a measure of DNA replication (Cell proliferation ELISA kit, Roche Diagnostics, Indianapolis, Ind.) and absorbance was measured at 405 nm. Potency values (IC50) values were determined as the concentration (nM) of compound that elicited a half-maximal response.

[1] = Mouse hypercalcemia assay; settings: oral gavage for 6 days, serum ionized calcium 6 hours after last dosing
Description: The Mouse Hypercalcemia Assay is a six day hypercalcemia test for toxicity and selectivity. Acceptable test results are levels greater than 300 μg/kg/day. Preferred assay results are levels greater than 1000 μg/day.
(4) Materials and Method for the Mouse Hypercalcemia Assay:
Weanling, virus—antibody-free, five to six weeks old female DBF mice (Harlan, Indianapolis, Ind.) are used for all the studies. Animals are allowed to acclimate to local vivarium conditions for 2 days. […] The animals then are divided into groups with 4-5 mice per group. Different doses of test compounds prepared in 10% Ethanol and 90% sesame oil are administered to mice orally via gavage for 6 days. 1α-25(OH)2D3 0.5 μg/kg/d was also given to one group of mice as the positive control. […] Raw data of group differences is assessed by analysis of variance (ANOVA) using Fisher's protected least significant difference (PLSD) where the significance level was P<0.05.

In the case of `CCC(CC)(c1ccc(OC[C@@](C)(O)C(C)(C)C)c(C)c1)c1ccc(OS(=O)(=O)C(F)(F)F)c(C)c1` (stereo in doubt) [Ex. 35, trifluoro-methanesulfonic acid 4-{1-ethyl-1-[4-(2-hydroxy-2,3,3-trimethyl-butoxy)-3-methyl-phenyl]-propyl}-2-methyl-phenyl ester], the EC50 (rat osteocalcin promoter; Rattus norvegicus, 48 h) is reported as 20.1 nM, the EC50 (RXR-VDR heterodimer) is reported as 138 nM and the EC50 (VDR) is reported as 616 nM.
For `CCC(CC)(c1ccc(OS(=O)(=O)C(F)(F)F)cc1)c1ccc(OCC(=O)C(C)(C)C)c(Cl)c1` [Ex 46, 52, 3′-[3-chloro-4-(2-Oxo-3.3-dimethylbutoxy)]-3′-(4-trifluoromethylsulfonyloxyphenyl)pentane], the EC50 (rat osteocalcin promoter; Rattus norvegicus, 48 h) was 217 nM and the IC50 (KERtr cells) was 90 nM.
For `CCC(CC)(c1ccc(OS(C)(=O)=O)cc1)c1ccc(OCC(O)C(C)(C)C)c(Cl)c1` (racemic) [Ex. 43, 51, 3′-[3-chloro-4-(2-hydroxy-3,3-dimethylbutoxy)phenyl]-3′-(4-methylsulfonyloxyphenyl)pentane], the EC50 (rat osteocalcin promoter; Rattus norvegicus, 48 h) was 7.53 nM and the IC50 (KERtr cells) was 4 nM.
Work on `CCC(CC)(c1ccc(OC[C@H](O)C(C)(C)C)c(C)c1)c1ccc(OS(C)(=O)=O)c(C)c1` [Ex. 1, 3′-[4-(2-hydroxy-3,3-dimethylbutoxy)-3-methylphenyl]-3′-[4-(methanesulfonyloxy)-3-methylphenyl]pentane] yielded an EC50 (rat osteocalcin promoter; Rattus norvegicus, 48 h) of 2.72 nM, an EC50 (RXR-VDR heterodimer) of 3.41 nM and an EC50 (VDR) of 118 nM.
For `CCC(CC)(c1ccc(OCC(=O)C(C)(C)C)c(C)c1)c1ccc(OS(=O)(=O)CC(F)(F)F)c(C)c1` [Ex. 7], the EC50 (rat osteocalcin promoter; Rattus norvegicus, 48 h) was 84 nM, the EC50 (VDR) was 331 nM and the “Mouse Hypercal” value [1] was 100 µg/kg/day.
With `CCC(CC)(c1ccc(OS(=O)(=O)C(F)(F)F)c(C)c1)c1ccc(OCC(=O)C(C)(C)C)c(Cl)c1` [Ex. 48, 3′-[3-chloro-4-(2-oxo-3.3-dimethylbutoxy)phenyl]-3′-[3-methyl-4-(trifluoromethylsulfonyloxy)phenyl]pentane] the EC50 (rat osteocalcin promoter; Rattus norvegicus, 48 h) was 54.1 nM, the IC50 (KERtr cells) was 13 nM and the “Mouse Hypercal” value [1] was under 1000 µg/kg/day.
For `CCC(CC)(c1ccc(OCC(O)C(C)(C)C)c(C)c1)c1ccc(OS(=O)(=O)C(F)(F)F)c(C)c1` (stereo not shown) [Ex. 6, 3′-[4-(2-hydroxy-3,3-dimethylbutoxy)-3-methylphenyl]-3′-[4-(trifluoromethanesulfonyloxy)-3-methylphenyl]pentane], the EC50 (rat osteocalcin promoter; Rattus norvegicus, 48 h) was 11.3 nM, the EC50 (VDR) was 1140 nM and the “Mouse Hypercal” value [1] was 300 µg/kg/day.
Molecule `CCC(CC)(c1ccc(NS(C)(=O)=O)c(C)c1)c1ccc(OCC(=O)C(C)(C)C)c(C)c1` [Ex. 17, N-(4-{1-[4-(3,3-Dimethyl-2-oxo-butoxy)-3-methyl-phenyl]-1-ethyl-propyl}-2-methyl-phenyl)-methanesulfonamide] has an EC50 (rat osteocalcin promoter; Rattus norvegicus, 48 h) of 3.75 nM and an IC50 (KERtr cells) of 2 nM.
`CCC(CC)(c1ccc(NS(C)(=O)=O)c(C)c1)c1ccc(OCC(O)C(C)(C)C)c(C)c1` (single isomer, unassigned) [Ex. 14, 3′-[4-(2-Hydroxy-3,3-dimethylbutoxy)-3-methylphenyl]-3′-[4-(methanesulfonylamino)-3-methylphenyl]pentane] gave an EC50 (rat osteocalcin promoter; Rattus norvegicus, 48 h) of 9.77 nM, an IC50 (KERtr cells) of 2 nM and an EC50 (VDR) of 89 nM. The “Mouse Hypercal” value [1] was under 300 µg/kg/day.
With `CCc1cc(C(CC)(CC)c2ccc(OS(C)(=O)=O)cc2)ccc1OCC(=O)C(C)(C)C` [Ex. 39, 3′-[4-(2-oxo-3,3-dimethylbutoxy)-3-ethylphenyl]-3′-[4-methylsulfonyloxy-phenyl]pentane] the EC50 (rat osteocalcin promoter; Rattus norvegicus, 48 h) was 1.79 nM, the EC50 (VDR) was 18 nM and the “Mouse Hypercal” value [1] was under 100 µg/kg/day.
With `CCC(CC)(c1ccc(OCC(=O)C(C)(C)C)c(C)c1)c1ccc(OS(=O)(=O)C(F)(F)F)c(C)c1` [Ex. 5, 3′-[4-(2-oxo-3,3-dimethylbutoxy)-3-methylphenyl]-3′-[4-(trifluoromethanesulfonyloxy)-3-methylphenyl]pentane] the EC50 (rat osteocalcin promoter; Rattus norvegicus, 48 h) was 20.8 nM, the EC50 (VDR) was 1590 nM and the “Mouse Hypercal” value [1] was over 500 µg/kg/day.
`CCC(CC)(c1ccc(OS(C)(=O)=O)cc1)c1ccc(OCC(O)C(C)(C)C)c(Cl)c1` (single isomer, unassigned) [Ex. 44, 3′-[3-chloro-4-(2-hydroxy-3,3-dimethylbutoxy)phenyl]-3′-(4-methylsulfonyloxyphenyl)pentane] showed an EC50 (rat osteocalcin promoter) of 2.4 nM, an EC50 (RXR-VDR heterodimer) of 2.21 nM and an EC50 (VDR) of 86.6 nM.
For `CCC(CC)(c1ccc(NS(=O)(=O)CC)c(C)c1)c1ccc(OCC(=O)C(C)(C)C)c(C)c1` [Ex. 23, N-(4-{1-[4-(3,3-Dimethyl-2-oxo-butoxy)-3-methyl-phenyl]-1-ethyl-propyl}-2-methyl-phenyl)-ethanesulfonamide], the EC50 (rat osteocalcin promoter; Rattus norvegicus, 48 h) was 0.33 nM, the EC50 (RXR-VDR heterodimer) was 0.817 nM and the EC50 (VDR) was 6.06 nM. The “Mouse Hypercal” value [1] was 500 µg/kg/day.
Molecule `CCC(CC)(c1ccc(OCC(O)C(C)(C)C)c(C)c1)c1ccc(N(C)S(C)(=O)=O)c(C)c1` (single isomer, unassigned) [Ex. 21, N-(4-{1-ethyl-1-[4-(2-hydroxy-3,3-dimethyl-butoxy)-3-methyl-phenyl]-propyl}-2-methyl-phenyl)-N-methyl-methanesulfonamide] has an EC50 (rat osteocalcin promoter) of 124 nM and an IC50 (KERtr cells) of 67 nM.
In the case of `CCC(CC)(c1ccc(OC[C@H](O)C(C)(C)C)c(C)c1)c1ccc(OS(C)(=O)=O)c(C)c1` (single isomer, unassigned) [Ex. 2, 3′-[4-(2-hydroxy-3,3-dimethylbutoxy)-3-methylphenyl]-3′-[4-(methanesulfonyloxy)-3-methylphenyl]pentane], the EC50 (rat osteocalcin promoter) is reported as 5.1 nM, the EC50 (VDR) is reported as 46.5 nM and the “Mouse Hypercal” value [1] is reported as 50 µg/kg/day.
With `Cc1cc(C2(c3ccc(OCC(=O)C(C)(C)C)c(C)c3)CCCCC2)ccc1OCC(=O)C(C)(C)C` [CC, 1-(4-{1-[4-(3,3-Dimethyl-2-oxo-butoxy)-3-methyl-phenyl]-cyclohexyl}-2-methyl-phenoxy)-3,3-dimethyl-butan-2-one, reference compound] the EC50 (rat osteocalcin promoter; Rattus norvegicus, 48 h) was 10000 nM, the EC50 (VDR) was 710000 nM and the “Mouse Hypercal” value [1] was over 30000 µg/kg/day.
